Experimental data from US20030095958A1, “Inhibitors of bace” (priority 2001, published 2003).

Target: BACE (Homo sapiens, UniProt P56817)
Experiment: Ki Determination for the Inhibition of BACE (FS-1 peptide fluorescence cleavage assay)
Format: biochemical
Conditions: apparent Ki; 50 nM BACE, 10 μM FS-1 substrate, 0.1M sodium acetate pH 4.5
Outline: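 Apparent Ki values derive from fitting fluorescence progress data (355 nm excitation, 495 nm emission) of FS-1 peptide cleavage to an integrated competitive tight-binding model. Reactions held 50 nM BACE, 10 μM substrate and inhibitor in 2% DMSO, pH 4.5 acetate buffer, with a 15 min enzyme-compound preincubation at room temperature.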

BACE, sequence (P56817 46-501): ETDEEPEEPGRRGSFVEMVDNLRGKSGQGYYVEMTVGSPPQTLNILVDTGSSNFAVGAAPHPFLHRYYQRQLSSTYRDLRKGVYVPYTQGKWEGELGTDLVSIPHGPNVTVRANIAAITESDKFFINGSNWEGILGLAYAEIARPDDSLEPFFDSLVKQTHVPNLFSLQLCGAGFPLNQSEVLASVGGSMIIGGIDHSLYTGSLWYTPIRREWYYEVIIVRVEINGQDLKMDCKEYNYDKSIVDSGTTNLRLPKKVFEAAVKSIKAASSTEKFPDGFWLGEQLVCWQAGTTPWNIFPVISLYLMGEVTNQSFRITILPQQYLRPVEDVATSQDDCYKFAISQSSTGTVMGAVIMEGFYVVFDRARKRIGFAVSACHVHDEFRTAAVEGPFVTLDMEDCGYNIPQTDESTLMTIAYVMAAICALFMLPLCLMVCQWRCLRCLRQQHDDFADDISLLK

Row | Ki [µM] | SMILES
1 | < 3 | O=C(c1cccc2ccccc12)n1c2c(c3cc(OCc4cccc(C(F)(F)F)c4)ccc31)CCNC2 [Compound 508, Naphthalen-1-yl-[6-(3-trifluoromethyl-benzyloxy)-1,2,3,4-tetrahydro-b-carbolin-9-yl]-methanone]
2 | < 3 | Fc1ccccc1-c1cc(COc2ccccc2C(F)(F)F)c(C2=CCNCC2)cc1COc1ccccc1C(F)(F)F [Compound 347, 4-[2′-Fluoro-2,5-bis-(2-trifluoromethyl-phenoxymethyl)-biphenyl-4-yl]-1,2,3,6-tetrahydro-pyridine]
3 | < 3 | COc1cc(COc2ccc3c(c2)c2c(n3C(=O)c3ccc4ccccc4c3)CNCC2)cc(OC)c1 [Compound 527, [6-(3,5-Dimethoxy-benzyloxy)-1,2,3,4-tetrahydro-b-carbolin-9-yl]-naphthalen-2-yl-methanone]
4 | < 3 | FC(F)(F)c1ccccc1OCc1cc(-c2ccncc2)c(COc2ccccc2C(F)(F)F)cc1C1=CCNCC1 [Compound 341, 4-[4-(1,2,3,6-Tetrahydro-pyridin-4-yl)-2,5-bis-(2-trifluoromethyl-phenoxymethyl)-phenyl]-pyridine]
5 | 3 to 30 | O=C(Nc1cc(C(F)(F)F)ccc1N1CCNCC1)c1ccc2cnccc2n1 [Compound 190, [1,6]Naphthyridine-2-carboxylic acid (2-piperazin-1-yl-5-trifluoromethyl-phenyl)-amide]
6 | 3 to 30 | FC(F)(F)c1ccccc1OCc1cc(C2=CCNCC2)ccc1C1=CCNCC1 [Compound 371, 4-[4-(1,2,3,6-Tetrahydro-pyridin-4-yl)-2-(2-trifluoromethyl-phenoxymethyl)-phenyl]-1,2,5,6-tetrahydro-pyridine]
7 | 3 to 30 | O=C(NC1CCc2ccccc2C1)C1CNCCC1c1ccc(COc2ccccc2C(F)(F)F)cc1 (centres unmarked) [Compound 219, 4-[4-(2-Trifluoromethyl-phenoxymethyl)-phenyl]-piperidine-3-carboxylic acid (1,2,3,4-tetrahydro-naphthalen-2-yl)-amide]
8 | 3 to 30 | Nc1cc2ccccc2cc1NC(=O)c1ccc(COc2ccccc2C(F)(F)F)cc1C1=CCNCC1 [Compound 311, N-(3-Amino-naphthalen-2-yl)-2-(1,2,3,6-tetrahydro-pyridin-4-yl)-4-(2-trifluoromethyl-phenoxymethyl)-benzamide]
9 | 3 to 30 | O=C(OCc1ccc(COc2ccccc2C(F)(F)F)cc1C1=CCNCC1)c1ccc2c(c1)OCO2 [Compound 316, Benzo[1,3]dioxole-5-carboxylic acid 2-(1,2,3,6-tetrahydro-pyridin-4-yl)-4-(2-trifluoromethyl-phenoxymethyl)-benzyl ester]
10 | 3 to 30 | O=C(NC(Cc1ccccc1)C(=O)N1CCCC1C(=O)NCC1CNCCC1c1ccc(COc2ccccc2C(F)(F)F)cc1)OCc1ccccc1 (centres unmarked) [Compound 223, {1-Benzyl-2-oxo-2-[2-({4-[4-(2-trifluoromethyl-phenoxymethyl)-phenyl]-piperidin-3-ylmethyl}-carbamoyl)-pyrrolidin-1-yl]-ethyl}-carbamic acid benzyl ester]
11 | < 3 | Cc1c(COc2ccc3c(c2)c2c(n3Cc3cccc4ccccc34)CNCC2)cccc1C(F)(F)F [Compound 521, 6-(2-Methyl-3-trifluoromethyl-benzyloxy)-9-naphthalen-1-ylmethyl-2,3,4,9-tetrahydro-1H-b-carboline]
12 | > 30 | Cc1cc(N2CCNCC2)c(NC(=O)c2cccc3ccccc23)cc1Br [Compound 112, Naphthalene-1-carboxylic acid (5-bromo-4-methyl-2-piperazin-1-yl-phenyl)-amide]
13 | < 3 | CCOC(=O)c1c(C)[nH]c2ccc(OCc3ccc(COc4ccccc4C(F)(F)F)cc3C3=CCNCC3)cc12 [Compound 332, 2-Methyl-5-[2-(1,2,3,6-tetrahydro-pyridin-4-yl)-4-(2-trifluoromethyl-phenoxymethyl)-benzyloxy]-1H-indole-3-carboxylic acid ethyl ester]
14 | < 3 | Cc1c(COc2ccc3c(c2)c2c(n3Cc3ccc4ccccc4c3)CNCC2)cccc1C(F)(F)F [Compound 522, 6-(2-Methyl-3-trifluoromethyl-benzyloxy)-9-naphthalen-2-ylmethyl-2,3,4,9-tetrahydro-1H-b-carboline]
15 | < 3 | FC(F)(F)c1ccccc1OCc1cc(-c2ccc[nH]2)c(COc2ccccc2C(F)(F)F)cc1C1=CCNCC1 [Compound 358, 4-[4-(1H-Pyrrol-2-yl)-2,5-bis-(2-trifluoromethyl-phenoxymethyl)-phenyl]-1,2,3,6-tetrahydro-pyridine]
16 | 3 to 30 | O=C(NC(c1ccccc1)c1ccccc1)C1CNCCC1c1ccc(COc2ccccc2C(F)(F)F)cc1 (centres unmarked) [Compound 211, 4-[4-(2-Trifluoromethyl-phenoxymethyl)-phenyl]-piperidine-3-carboxylic acid benzhydryl-amide]
17 | 3 to 30 | FC(F)(F)c1ccccc1OCc1cc(-c2ccc3ccccc3c2)c(COc2ccccc2C(F)(F)F)cc1C1=CCNCC1 [Compound 339, 4-[4-Naphthalen-2-yl-2,5-bis-(2-trifluoromethyl-phenoxymethyl)-phenyl]-1,2,3,6-tetrahydro-pyridine]
18 | < 3 | OCc1ccccc1-c1cc(COc2ccccc2C(F)(F)F)c(C2=CCNCC2)cc1COc1ccccc1C(F)(F)F [Compound 367, [4′-(1,2,3,6-Tetrahydro-pyridin-4-yl)-2′,5′-bis-(2-trifluoromethyl-phenoxymethyl)-biphenyl-2-yl]-methanol]

Row | Ki [µM] | SMILES
19 | < 3 | O=C(Nc1cc(-c2ccccc2)c(COc2ccccc2C(F)(F)F)cc1N1CCNCC1)c1nccc2ccccc12 [Compound 184, Isoquinoline-1-carboxylic acid [4-piperazin-1-yl-6-(2-trifluoromethyl-phenoxymethyl)-biphenyl-3-yl]-amide]
20 | 3 to 30 | O=C(Nc1cc(C(F)(F)F)cc(NC(=O)c2ccc3ccccc3c2)c1N1CCNCC1)c1ccc2ccccc2c1 [Compound 115, 4-{2,6-Bis-[(naphthalene-2-carbonyl)-amino]-4-trifluoromethyl-phenyl}-piperazine]
21 | 3 to 30 | CC(NC(=O)C1CNCCC1c1ccc(-c2ccccc2)cc1)c1cccc2ccccc12 (centres unmarked) [Compound 404]
22 | < 3 | CC(O)c1ccccc1-c1cc(COc2ccccc2C(F)(F)F)c(C2=CCNCC2)cc1COc1ccccc1C(F)(F)F (centres unmarked) [Compound 355, 1-[4′-(1,2,3,6-Tetrahydro-pyridin-4-yl)-2′,5′-bis-(2-trifluoromethyl-phenoxymethyl)-biphenyl-2-yl]-ethanol]
23 | < 3 | O=S(=O)(NCC1CNCCC1c1ccc(COc2ccccc2C(F)(F)F)cc1)c1ccc2ccccc2c1 (centres unmarked) [Compound 231, Naphthalene-2-sulfonic acid {4-[4-(2-trifluoromethyl-phenoxymethyl)-phenyl]-piperidin-3-ylmethyl}-amide]
24 | < 3 | O=C(Nc1cc(-c2cccc(Cl)c2Cl)ccc1N1CCNCC1)c1cccc2ccccc12 [Compound 106, Naphthalene-1-carboxylic acid (2′,3′-dichloro-4-piperazin-1-yl-biphenyl-3-yl)-amide]
25 | 3 to 30 | O=C(OCc1ccc(COc2ccccc2C(F)(F)F)cc1C1=CCNCC1)c1ccccc1C(F)(F)F [Compound 314, 2-Trifluoromethyl-benzoic acid 2-(1,2,3,6-tetrahydro-pyridin-4-yl)-4-(2-trifluoromethyl-phenoxymethyl)-benzyl ester]
26 | < 3 | c1ccc(-c2ccc(N3CCNCC3)c(NCc3ccc4ccccc4c3)c2)cc1 [Compound 165, Naphthalen-2-ylmethyl-(4-piperazin-1-yl-biphenyl-3-yl)-amine]
27 | 3 to 30 | O=C(Nc1cc(-c2cccc(C(F)(F)F)c2)ccc1N1CCNCC1)c1cccc2ccccc12 [Compound 128, Naphthalene-1-carboxylic acid (4-piperazin-1-yl-3′-trifluoromethyl-biphenyl-3-yl)-amide]
28 | 3 to 30 | Cc1ccc(-c2ccc(N3CCNCC3)c(NC(=O)c3cccc4ccccc34)c2)cc1 [Compound 124, Naphthalene-1-carboxylic acid (4′-methyl-4-piperazin-1-yl-biphenyl-3-yl)-amide]
29 | < 3 | O=C(c1cccc2ccccc12)n1c2c(c3cc(OCc4ccc(OC(F)F)cc4)ccc31)CCNC2 [Compound 514, [6-(4-Difluoromethoxy-benzyloxy)-1,2,3,4-tetrahydro-b-carbolin-9-yl]-naphthalen-1-yl-methanone]
30 | 3 to 30 | O=C(NCC1CNCCC1c1ccc(COc2ccccc2C(F)(F)F)cc1)Nc1cccc2ccccc12 (centres unmarked) [Compound 224, 1-Naphthalen-1-yl-3-{4-[4-(2-trifluoromethyl-phenoxymethyl)-phenyl]-piperidin-3-ylmethyl}-urea]
31 | < 3 | Fc1ccccc1-c1ccc(C2=CCNCC2)c(COc2ccccc2C(F)(F)F)c1 [Compound 372, 4-[2′-Fluoro-3-(2-trifluoromethyl-phenoxymethyl)-biphenyl-4-yl]-1,2,3,6-tetrahydro-pyridine]
32 | > 30 | CC(C)(C)c1ccc(C(=O)Nc2cc(C(F)(F)F)ccc2N2CCNCC2)cc1 [Compound 117, 4-tert-Butyl-N-(2-piperazin-1-yl-5-trifluoromethyl-phenyl)-benzamide]
33 | < 3 | COC(=O)c1ccc(-c2cc(COc3ccccc3C(F)(F)F)c(C3=CCNCC3)cc2COc2ccccc2C(F)(F)F)cc1 [Compound 369, 4′-(1,2,3,6-Tetrahydro-pyridin-4-yl)-2′,5′-bis-(2-trifluoromethyl-phenoxymethyl)-biphenyl-4-carboxylic acid methyl ester]
34 | 3 to 30 | O=C(Nc1cc(-c2ccc(F)cc2)ccc1N1CCNCC1)c1cccc2ccccc12 [Compound 103, Naphthalene-1-carboxylic acid (4′-fluoro-4-piperazin-1-yl-biphenyl-3-yl)-amide]
35 | < 3 | O=[N+]([O-])c1ccc(-c2cc(COc3ccccc3C(F)(F)F)c(C3=CCNCC3)cc2COc2ccccc2C(F)(F)F)cc1 [Compound 354, 4-[4′-Nitro-2,5-bis-(2-trifluoromethyl-phenoxymethyl)-biphenyl-4-yl]-1,2,3,6-tetrahydro-pyridine]
